# Measured values from PubChem BioAssay AID1745844 (Carcinogenic Potency Database (CPDB), 2022).
# Calls of active or inactive are those of the source. No rule for the calls is given here.
# Test system: rodent lifetime carcinogenesis bioassay, tumor incidence TD50
# Assay: carcinogenic potency in animals, long-term in vivo studies, CPDB compilation (AID 1745844)
smiles,measurement,setting,value
ClC(Cl)C(Cl)Cl,TD50,"mouse, strain B6C3F1, females, by gavage, site: any site (literature study), lesion: several types, types named in the paper, dosed 78 weeks, study length 92 weeks",37.2 mg/kg/day
same,TD50,"mouse, strain B6C3F1, females, by gavage, site: liver, lesion: hepatocellular adenoma + hepatocellular carcinoma + neoplastic nodule, dosed 78 weeks, study length 92 weeks",35.4 mg/kg/day
same,TD50,"mouse, strain B6C3F1, females, by gavage, site: liver, lesion: hepatocellular carcinoma, dosed 78 weeks, study length 91 weeks",35.8 mg/kg/day
same,TD50,"mouse, strain B6C3F1, females, by gavage, site: liver, lesion: hepatocellular carcinoma, dosed 78 weeks, study length 92 weeks",35.4 mg/kg/day
same,TD50,"mouse, strain B6C3F1, females, by gavage, site: lung, lesion: alveolar/bronchiolar adenoma + alveolar/bronchiolar carcinoma, dosed 78 weeks, study length 92 weeks",1910 mg/kg/day
same,TD50,"mouse, strain B6C3F1, males, by gavage, site: any site (literature study), lesion: several types, types named in the paper, dosed 78 weeks, study length 92 weeks",38.7 mg/kg/day
same,TD50,"mouse, strain B6C3F1, males, by gavage, site: liver, lesion: hepatocellular adenoma + hepatocellular carcinoma + neoplastic nodule, dosed 78 weeks, study length 92 weeks",41.6 mg/kg/day
same,TD50,"mouse, strain B6C3F1, males, by gavage, site: liver, lesion: hepatocellular carcinoma, dosed 78 weeks, study length 91 weeks",45.4 mg/kg/day
same,TD50,"mouse, strain B6C3F1, males, by gavage, site: liver, lesion: hepatocellular carcinoma, dosed 78 weeks, study length 92 weeks",41.6 mg/kg/day
same,TD50,"mouse, strain B6C3F1, males, by gavage, site: lung, lesion: alveolar/bronchiolar adenoma + alveolar/bronchiolar carcinoma, dosed 78 weeks, study length 92 weeks",895 mg/kg/day
same,TD50,"rat, strain Osborne-Mendel, females, by gavage, site: any site (literature study), lesion: several types, types named in the paper, dosed 77 weeks, study length 110 weeks",84.2 mg/kg/day (inactive)
same,carcinogen call,"rat, strain Osborne-Mendel, males, by gavage, site: any site (literature study), lesion: several types, types named in the paper, dosed 77 weeks, study length 110 weeks",negative (inactive)
same,TD50,"rat, strain Osborne-Mendel, males, by gavage, site: liver, lesion: hepatocellular adenoma + hepatocellular carcinoma + neoplastic nodule, dosed 77 weeks, study length 110 weeks",624 mg/kg/day
Cc1c([N+](=O)[O-])c(C)c([N+](=O)[O-])c(C(C)(C)C)c1[N+](=O)[O-],TD50,"mouse, strain B6C3F1, females, in feed, site: Harderian gland, lesion: several types, types named in the paper, dosed 80 weeks, study length 90 weeks",2250 mg/kg/day
same,TD50,"mouse, strain B6C3F1, females, in feed, site: all sites, lesion: lymphoma, dosed 80 weeks, study length 90 weeks",1300 mg/kg/day
same,TD50,"mouse, strain B6C3F1, females, in feed, site: any site (literature study), lesion: malignant tumor, dosed 80 weeks, study length 90 weeks",418 mg/kg/day
same,TD50,"mouse, strain B6C3F1, females, in feed, site: liver, lesion: hepatocellular adenoma, dosed 80 weeks, study length 90 weeks",234 mg/kg/day
same,TD50,"mouse, strain B6C3F1, females, in feed, site: liver, lesion: hepatocellular carcinoma, dosed 80 weeks, study length 90 weeks",2190 mg/kg/day
same,TD50,"mouse, strain B6C3F1, females, in feed, site: liver, lesion: several types, types named in the paper, dosed 80 weeks, study length 90 weeks",203 mg/kg/day
same,TD50,"mouse, strain B6C3F1, females, in feed, site: lung, lesion: adenoma, dosed 80 weeks, study length 90 weeks",1630 mg/kg/day
same,TD50,"mouse, strain B6C3F1, females, in feed, site: lung, lesion: carcinoma, dosed 80 weeks, study length 90 weeks",6650 mg/kg/day
same,TD50,"mouse, strain B6C3F1, females, in feed, site: lung, lesion: several types, types named in the paper, dosed 80 weeks, study length 90 weeks",1300 mg/kg/day
same,TD50,"mouse, strain B6C3F1, females, in feed, site: uterus, lesion: endometrial stromal sarcoma, dosed 80 weeks, study length 90 weeks",533 mg/kg/day
same,TD50,"mouse, strain B6C3F1, males, in feed, site: Harderian gland, lesion: adenoma, dosed 80 weeks, study length 90 weeks",383 mg/kg/day
same,TD50,"mouse, strain B6C3F1, males, in feed, site: Harderian gland, lesion: several types, types named in the paper, dosed 80 weeks, study length 90 weeks",425 mg/kg/day
same,TD50,"mouse, strain B6C3F1, males, in feed, site: any site (literature study), lesion: malignant tumor, dosed 80 weeks, study length 90 weeks",334 mg/kg/day
same,TD50,"mouse, strain B6C3F1, males, in feed, site: liver, lesion: hepatocellular adenoma, dosed 80 weeks, study length 90 weeks",232 mg/kg/day
same,TD50,"mouse, strain B6C3F1, males, in feed, site: liver, lesion: hepatocellular carcinoma, dosed 80 weeks, study length 90 weeks",313 mg/kg/day
same,TD50,"mouse, strain B6C3F1, males, in feed, site: liver, lesion: several types, types named in the paper, dosed 80 weeks, study length 90 weeks",92.1 mg/kg/day
same,TD50,"mouse, strain B6C3F1, males, in feed, site: lung, lesion: adenoma, dosed 80 weeks, study length 90 weeks",1200 mg/kg/day
CC(=O)NNc1ccc(CO)cc1,TD50,"mouse, strain Swiss albino, females, in drinking water, site: blood vessels, lesion: several types, types named in the paper, dosed 115 weeks, study length 115 weeks",287 mg/kg/day
same,TD50,"mouse, strain Swiss albino, females, in drinking water, site: lung, lesion: several types, types named in the paper, dosed 115 weeks, study length 115 weeks",329 mg/kg/day
same,TD50,"mouse, strain Swiss albino, males, in drinking water, site: blood vessels, lesion: several types, types named in the paper, dosed 115 weeks, study length 115 weeks",252 mg/kg/day
same,carcinogen call,"mouse, strain Swiss albino, males, in drinking water, site: liver, lesion: hepatoma, dosed 115 weeks, study length 115 weeks",negative (inactive)
same,TD50,"mouse, strain Swiss albino, males, in drinking water, site: lung, lesion: several types, types named in the paper, dosed 115 weeks, study length 115 weeks",208 mg/kg/day
C=CC(N)=O,TD50,"rat, strain Fischer 344, females, in drinking water, site: brain, lesion: astrocytoma, dosed 104 weeks, study length 104 weeks",38.8 mg/kg/day
same,TD50,"rat, strain Fischer 344, females, in drinking water, site: brain, lesion: astrocytoma, dosed 107 weeks, study length 107 weeks",71.8 mg/kg/day
same,TD50,"rat, strain Fischer 344, females, in drinking water, site: brain, lesion: oligodendroglioma, dosed 104 weeks, study length 104 weeks",259 mg/kg/day
same,TD50,"rat, strain Fischer 344, females, in drinking water, site: central nervous system, lesion: astrocytoma, dosed 104 weeks, study length 104 weeks",19.5 mg/kg/day
same,TD50,"rat, strain Fischer 344, females, in drinking water, site: central nervous system, lesion: glial tumors (oligodendroglioma and astrocytoma), dosed 104 weeks, study length 104 weeks",17.3 mg/kg/day
same,TD50,"rat, strain Fischer 344, females, in drinking water, site: central nervous system, lesion: glial tumors (oligodendroglioma and astrocytoma), dosed 107 weeks, study length 107 weeks",57.2 mg/kg/day
same,TD50,"rat, strain Fischer 344, females, in drinking water, site: clitoral gland, lesion: adenoma, dosed 104 weeks, study length 104 weeks",19 mg/kg/day
same,TD50,"rat, strain Fischer 344, females, in drinking water, site: mammary gland, lesion: adenocarcinoma, dosed 104 weeks, study length 104 weeks",17.6 mg/kg/day
same,TD50,"rat, strain Fischer 344, females, in drinking water, site: mammary gland, lesion: adenocarcinoma, dosed 107 weeks, study length 107 weeks",100 mg/kg/day
same,TD50,"rat, strain Fischer 344, females, in drinking water, site: mammary gland, lesion: benign tumor, dosed 104 weeks, study length 104 weeks",4.21 mg/kg/day
same,TD50,"rat, strain Fischer 344, females, in drinking water, site: mammary gland, lesion: fibroadenoma, dosed 104 weeks, study length 104 weeks",8.73 mg/kg/day
same,TD50,"rat, strain Fischer 344, females, in drinking water, site: mammary gland, lesion: fibroadenoma, dosed 107 weeks, study length 107 weeks",9.33 mg/kg/day
same,TD50,"rat, strain Fischer 344, females, in drinking water, site: mammary gland, lesion: several types, types named in the paper, dosed 107 weeks, study length 107 weeks",8.18 mg/kg/day
same,TD50,"rat, strain Fischer 344, females, in drinking water, site: mammary tissue, wider than the gland, lesion: fibroma, dosed 104 weeks, study length 104 weeks",20.9 mg/kg/day
same,TD50,"rat, strain Fischer 344, females, in drinking water, site: oral cavity, lesion: squamous-cell papilloma, dosed 104 weeks, study length 104 weeks",16.2 mg/kg/day
same,TD50,"rat, strain Fischer 344, females, in drinking water, site: spinal cord, lesion: astrocytoma, dosed 104 weeks, study length 104 weeks",40.3 mg/kg/day
same,TD50,"rat, strain Fischer 344, females, in drinking water, site: spinal cord, lesion: astrocytoma, dosed 107 weeks, study length 107 weeks",210 mg/kg/day
same,TD50,"rat, strain Fischer 344, females, in drinking water, site: thyroid follicle, lesion: several types, types named in the paper, dosed 104 weeks, study length 104 weeks",19.1 mg/kg/day
same,TD50,"rat, strain Fischer 344, females, in drinking water, site: thyroid follicle, lesion: several types, types named in the paper, dosed 107 weeks, study length 107 weeks",8.92 mg/kg/day
same,TD50,"rat, strain Fischer 344, females, in drinking water, site: thyroid gland, lesion: follicular adenocarcinoma, dosed 104 weeks, study length 104 weeks",39.5 mg/kg/day
same,TD50,"rat, strain Fischer 344, females, in drinking water, site: thyroid gland, lesion: follicular adenocarcinoma, dosed 107 weeks, study length 107 weeks",42.8 mg/kg/day
same,TD50,"rat, strain Fischer 344, females, in drinking water, site: thyroid gland, lesion: follicular-cell adenoma, dosed 107 weeks, study length 107 weeks",11.7 mg/kg/day
same,TD50,"rat, strain Fischer 344, females, in drinking water, site: uterus, lesion: adenocarcinoma, dosed 104 weeks, study length 104 weeks",26.5 mg/kg/day
same,TD50,"rat, strain Fischer 344, males, in drinking water, site: adrenal gland, lesion: pheochromocytoma, benign, dosed 104 weeks, study length 104 weeks",18.1 mg/kg/day
same,TD50,"rat, strain Fischer 344, males, in drinking water, site: brain, lesion: astrocytoma, dosed 104 weeks, study length 104 weeks",82.6 mg/kg/day
same,TD50,"rat, strain Fischer 344, males, in drinking water, site: brain, lesion: astrocytoma, dosed 107 weeks, study length 107 weeks",76.8 mg/kg/day
same,TD50,"rat, strain Fischer 344, males, in drinking water, site: brain, lesion: oligodendroglioma, dosed 104 weeks, study length 104 weeks",339 mg/kg/day
same,TD50,"rat, strain Fischer 344, males, in drinking water, site: central nervous system, lesion: astrocytoma, dosed 104 weeks, study length 104 weeks",23.5 mg/kg/day
same,TD50,"rat, strain Fischer 344, males, in drinking water, site: central nervous system, lesion: glial tumors (oligodendroglioma and astrocytoma), dosed 104 weeks, study length 104 weeks",24.8 mg/kg/day
same,TD50,"rat, strain Fischer 344, males, in drinking water, site: central nervous system, lesion: glial tumors (oligodendroglioma and astrocytoma), dosed 107 weeks, study length 107 weeks",48.9 mg/kg/day
same,TD50,"rat, strain Fischer 344, males, in drinking water, site: spinal cord, lesion: astrocytoma, dosed 104 weeks, study length 104 weeks",39.7 mg/kg/day
same,TD50,"rat, strain Fischer 344, males, in drinking water, site: spinal cord, lesion: astrocytoma, dosed 107 weeks, study length 107 weeks",82.5 mg/kg/day
same,TD50,"rat, strain Fischer 344, males, in drinking water, site: spleen, lesion: leukemia, dosed 104 weeks, study length 104 weeks",45.8 mg/kg/day
same,TD50,"rat, strain Fischer 344, males, in drinking water, site: thyroid follicle, lesion: several types, types named in the paper, dosed 107 weeks, study length 107 weeks",7.35 mg/kg/day
same,TD50,"rat, strain Fischer 344, males, in drinking water, site: thyroid gland, lesion: follicular adenocarcinoma, dosed 107 weeks, study length 107 weeks",77.2 mg/kg/day
same,TD50,"rat, strain Fischer 344, males, in drinking water, site: thyroid gland, lesion: follicular-cell adenoma, dosed 104 weeks, study length 104 weeks",13.5 mg/kg/day
same,TD50,"rat, strain Fischer 344, males, in drinking water, site: thyroid gland, lesion: follicular-cell adenoma, dosed 107 weeks, study length 107 weeks",7.49 mg/kg/day
same,TD50,"rat, strain Fischer 344, males, in drinking water, site: tunica vaginalis, lesion: mesothelioma, benign, dosed 107 weeks, study length 107 weeks",9.45 mg/kg/day
same,TD50,"rat, strain Fischer 344, males, in drinking water, site: tunica vaginalis, lesion: mesothelioma, malignant, dosed 104 weeks, study length 104 weeks",1.75 mg/kg/day
O=C(Nc1ccc2c(c1)Cc1ccccc1-2)C(F)(F)F,TD50,"rat, strain Buffalo, females, in feed, site: ear duct, lesion: squamous-cell carcinoma, dosed 53 weeks, study length 54 weeks",4.94 mg/kg/day
same,TD50,"rat, strain Buffalo, females, in feed, site: liver, lesion: hepatoma, dosed 53 weeks, study length 54 weeks",1.9 mg/kg/day
same,TD50,"rat, strain Buffalo, females, in feed, site: mammary gland, lesion: adenocarcinoma, dosed 53 weeks, study length 54 weeks",1.62 mg/kg/day
C#C[C@]1(O)CC[C@H]2[C@@H]3CCc4cc(O)ccc4[C@H]3CC[C@@]21C,TD50,"rat, strain Slc-Wistar, females, by gavage, site: liver, lesion: hepatocellular carcinoma, dosed 52 weeks, study length 52 weeks",0.2 mg/kg/day
